Data published in patent US10259847B2, “Beta-hairpin peptidomimetics” (POLYPHOR AG, priority 2014, dated 2019).
Where a SMILES comes first, the peptide text is derived from it. Bridges are numbered along the chain shown (N, C = ends). [ ]: non-standard residue; d: D form. Tle = CC(C)(C)[C@H](N)C(=O)O; dDab = NCC[C@@H](N)C(=O)O; Orn = NCCC[C@H](N)C(=O)O; Dab = NCC[C@H](N)C(=O)O; dAze = O=C(O)[C@H]1CCN1; Dap = NC[C@H](N)C(=O)O

Legend:
Assay type in all cases: cell-based
[1] = tested on: Acinetobacter baumannii DSM 30008; settings: DSM 30008
Procedure: (§1) Stock solutions were kept at +4° C., light protected.
(§2) The selective antimicrobial activities of the peptides were determined in 96-well plates (Greiner, polystyrene) by the standard NCCLS broth microdilution method (National Committee for Clinical Laboratory Standards 1993. Methods for dilution antimicrobial susceptibility tests for bacteria that grow aerobically, 3rd ed. Approved standard M7-A6; National Committee for Clinical laboratory standards, Wayne, Pa.) with slight modifications. Inocula of the microorganisms were diluted into Mueller-Hinton II (MH, cation adjusted) broth and compared with a 0.5 McFarland standard to give appr. 10^6 colony forming units (CFU)/mL. Aliquots (90 μl) of inoculate were added to 10 μl of MH broth+P-80 (Polysorbate 80, 0.002% final concentration) containing the peptide in serial two-fold dilutions. The following microorganisms were used to determine antibiotic selectivity of the peptides: Escherichia coli ATCC 25922, Klebsiella pneumoniae ATCC 13883 and Acinetobacter baumannii DSM 30008.

[2] = tested on: Klebsiella pneumoniae ATCC 13883; settings: ATCC 13883
Procedure: as §1, §2

[3] = tested on: Escherichia coli ATCC 25922; settings: ATCC 25922
Procedure: as §1, §2

[4] = tested on: human red blood cells (hRBC); test: Hemolysis of human red blood cells; settings: red cells of human, 1 h, 100
Procedure: as §1
Percent hemolysis was calculated as follows: (OD540peptide/OD540H2O)×100%.

Structure (SMILES)	Acinetobacter baumannii DSM 30008 MIC [1]	Klebsiella pneumoniae ATCC 13883 MIC [2]	Escherichia coli ATCC 25922 MIC [3]	Hemolysis at 100 μg/mL [4]
CC(C)[C@@H]1NC(=O)[C@@H]2CCCN2C(=O)[C@H]2CCN2C(=O)[C@H]([C@@H](C)O)NC(=O)[C@@H]2CC(=O)NCC[C@H](NC1=O)C(=O)N[C@@H](Cc1ccc(O)cc1)C(=O)N[C@@H](CCN)C(=O)N[C@@H](CN)C(=O)N[C@H](CCN)C(=O)N[C@@H](CCN)C(=O)N[C@@H](Cc1c[nH]c3ccccc13)C(=O)N[C@@H](CCN)C(=O)N[C@@H](C(C)(C)C)C(=O)N2 [Example 12, cyclo(-Val-Dab-Tyr-Dab-Dap-^DDab-Dab-Trp-Dab-tBuGly-Asp-Thr-^DAzt-Pro-)] (cyclo(DT[dAze]PV[Dab]Y[Dab][Dap][dDab][Dab]W[Dab][Tle]); lactam 1-6)	1 µg/mL	0.25 µg/mL	0.5 µg/mL	4%
CC(C)C[C@@H]1NC(=O)[C@@H]2CCCN2C(=O)[C@H]2CCCN2C(=O)[C@H](CO)NC(=O)[C@@H]2CNC(=O)C[C@H](NC1=O)C(=O)N[C@@H](Cc1ccc(O)cc1)C(=O)N[C@@H](CCN)C(=O)N[C@@H](CCCN)C(=O)N[C@H](CCN)C(=O)N[C@@H](CCN)C(=O)N[C@@H](Cc1c[nH]c3ccccc13)C(=O)N[C@@H](CCN)C(=O)N[C@@H](C(C)(C)C)C(=O)N2 [Example 21, cyclo(-Leu-Asp-Tyr-Dab-Orn-^DDab-Dab-Trp-Dab-tBuGly-Dap-Ser-^DPro-Pro-)] (cyclo(LDY[Dab][Orn][dDab][Dab]W[Dab][Tle][Dap]S[dP]P); lactam 2-11)	4 µg/mL	0.5 µg/mL	2 µg/mL	1%
CC(C)C[C@@H]1NC(=O)[C@@H]2CCCN2C(=O)[C@H]2CCCN2C(=O)[C@H](CO)NC(=O)[C@@H]2CNC(=O)CC[C@H](NC1=O)C(=O)N[C@@H](Cc1ccc(O)cc1)C(=O)N[C@@H](CCN)C(=O)N[C@@H](CCCN)C(=O)N[C@@H](CCN)C(=O)N[C@@H](CCN)C(=O)N[C@@H](Cc1c[nH]c3ccccc13)C(=O)N[C@@H](CCN)C(=O)N[C@@H](C(C)(C)C)C(=O)N2 [Example 18, cyclo(-Leu-Glu-Tyr-Dab-Orn-Dab-Dab-Trp-Dab-tBuGly-Dap-Ser-^DPro-Pro-)] (HELM PEPTIDE1{L.E.Y.[Dab].[Orn].[Dab].[Dab].W.[Dab].[CC(C)(C)[C@H](N[*:1])C(=O)[*:2]].[O=C([C@H](CN[*:3])N[*:1])[*:2]].S.[dP].P}$PEPTIDE1,PEPTIDE1,2:R3-11:R3|PEPTIDE1,PEPTIDE1,1:R1-14:R2$$$V2.0)	3 µg/mL	0.5 µg/mL	2 µg/mL	0%
CC(C)C[C@@H]1NC(=O)[C@@H]2CCCN2C(=O)[C@H]2CCCN2C(=O)[C@H](CO)NC(=O)[C@@H]2CCNC(=O)C[C@H](NC1=O)C(=O)N[C@@H](Cc1ccc(O)cc1)C(=O)N[C@@H](CCN)C(=O)N[C@@H](CCCN)C(=O)N[C@@H](CCN)C(=O)N[C@@H](CCN)C(=O)N[C@@H](Cc1c[nH]c3ccccc13)C(=O)N[C@@H](CCN)C(=O)N[C@@H](C(C)(C)C)C(=O)N2 [Example 23, cyclo(-Leu-Asp-Tyr-Dab-Orn-Dab-Dab-Trp-Dab-tBuGly-Dab-Ser-^DPro-Pro-)] (HELM PEPTIDE1{L.D.Y.[Dab].[Orn].[Dab].[Dab].W.[Dab].[CC(C)(C)[C@H](N[*:1])C(=O)[*:2]].[Dab].S.[dP].P}$PEPTIDE1,PEPTIDE1,2:R3-11:R3|PEPTIDE1,PEPTIDE1,1:R1-14:R2$$$V2.0)	1 µg/mL	0.5 µg/mL	1 µg/mL	0%
